Reference: patent publication US20240423246A1, “RAPAMYCIN FOR INCREASED MILK PRODUCTION” (THE STATE OF ISRAEL, MINISTRY OF AGRICULTURE & RURAL …, priority 2023, published 2024)

How the values were obtained:
[1] = system: bovine mammary epithelial stem cell population; assay: Propagation rate of cultured cells from vehicle- and rapamycin-treated glands; format: cell-based
Protocol: For propagation rate, cells from each treatment were seeded in 96-well cell-culture plates (Corning, Corning, NY) at a density of 10,000 cells/well and cultured in mammary medium composed of DMEM-F12 medium containing 5% FBS, hydrocortisone ([…], Sigma), insulin ([…], Sigma), gentamicin ([…], Biological Industries), streptomycin and penicillin ([…] and 100 U/ml, respectively), hEGF (10 ng/ml, Merck, Darmstadt, Germany), hFGF2 (10 ng/ml, Merck), heparin (4 mg/ml, Merck), cholera toxin (10 ng/ml, Sigma) and B27 ([…], Invitrogen, Carlsbad, CA) (10) for the indicated period.
Rapamycin's effect on cell-propagation rate was analyzed in cultures from individual vehicle- and rapamycin-treated glands (FIG. 4A). This method produces a clear and significant distinction of the bovine mammary epithelial stem cell population from the more differentiated ones.

[2] = Mammary tissue morphology and pathology after intramammary rapamycin (H&E); format: in vivo, bovine (Holstein calves)
Protocol: (§1) Three-month-old female Holstein calves (˜90 kg body weight [BW]) that were raised on the Volcani Center's experimental farm were used in these experiments. During the experimental periods, each mammary gland was administered via the teat canal with 2 mL of vehicle, composed of sterile PBS containing 10% polyethylene glycol (Sigma, St. Louis, MO) and 10% Tween 80 (Sigma). In individual experiments, the vehicle was supplemented with Evans blue to analyze the penetration of this solution into the mammary epithelium, or with rapamycin to analyze its effect on cellular activities. The vehicle was administered using a sterile 22G IV cannula (Deltaven, Viadana, (MN) Italy), cut to ˜1.5 cm and inserted (without the needle) into the teat canal. […] In the relevant experiments, estrogen (0.1 mg/kg per day, Sigma) and progesterone (0.25 mg/kg per day, Sigma) were administered following the rapamycin treatment by daily subcutaneous injections for 4 consecutive days. The design of the studies was based on the distinct morphology and activity of the individual “quarters” (i.e., glands) of the bovine udder which can be individually affected. Thus, in studies analyzing the rapamycin effects, front or rear glands of each side of the calf served as internal controls for the other two rapamycin-administered glands. The dye Evans blue was added to one of the vehicle-treated glands to follow its penetration into the epithelial morphology in close and far regions from the teat (FIG. 1).
Bovine mammary samples were fixed in Bouin's solution, dehydrated in a graded ethanol series (50% to 100%), cleared in xylene and embedded in paraffin. Paraffin sections (5 μm) were stained with hematoxylin and eosin (H&E; Sigma) to visualize the morphology of the mammary layers.
(§2) To determine an effective concentration and administration interval, mammalian target of rapamycin (mTOR) responsiveness to rapamycin administration was studied in parenchymal regions that were close to and far from the teat. Rapamycin was delivered to the parenchymatic region of two calves at two concentrations (4.16 or 8.32 mg/gland per day). The calves were sacrificed 24 h or 48 h later and the udders were removed. […] Note that complete repression of mTOR activity was avoided in these experiments to preserve the self-renewing capability of the epithelial stem cells.
The effect of 3 weeks of skip-a-day rapamycin administration (8.32 mg/gland per day) on stem cell self-renewal (FIGS. 3A-3F) was examined.
To study the effect of rapamycin administration and induced stem cell self-renewal on mammary cell proliferation and milk protein expression, front and rear mammary glands of three calves (six for each treatment) were infused with either vehicle or rapamycin for 3 weeks (8.3 mg/gland per day). […]

[3] = target: T1, mammalian target of rapamycin (mTOR) (Bos taurus, UniProt E1BFB4); assay: S6 phosphorylation in mammary parenchyma after single intramammary rapamycin administration (immunoblot, immunohistochemistry); format: in vivo, bovine (Holstein calves)
Protocol: as §1
Immunohistochemistry was performed on the 5-μm paraffin-embedded sections after antigen retrieval. The reaction with primary antibodies against β-casein (Barash lab), pS6 (Cell signaling Inc.), CK18 (GeneTex), and PCNA (BioLegend), was initiated by blocking the sections with 10% bovine serum albumen and 5% goat serum in 0.1% PBST for 1 h prior to overnight incubation with the first antibody at 4° C. Sections were washed and incubated with N-Histofine (Nichirei Biosciences, Tokyo, Japan) for 30 min at room temperature. Signals were generated with 3,3-diaminobenzidine (DAB) substrate (Vector Laboratories, Burlingame, CA).
(§3) Proteins from the parenchymal region of each mammary gland were extracted with RIPA buffer containing 10 mM Tris-HCl pH 7.5, 150 mM NaCl, 0.1% SDS, 1% sodium deoxycholate and 5 mM EDTA (Sigma), protease inhibitor cocktail and phosphatase inhibitor cocktail II (both from Sigma). Equal amounts of protein, determined by QPRO-BCA Kit Standard (Cyanagen, Bologna, Italy) according to the manufacturer's protocol, were subjected to SDS-PAGE. Fractionated proteins were transferred to nitrocellulose filters and the uploading of equal amounts of protein per sample was confirmed by staining the blot with Ponceau S (Sigma). The expression levels of phosphorylated S6 (pS6) and β-actin were determined according to the signals generated with their respective antibodies. Signals were generated with WESTAR Supernova (Cyanagen, Bologna, Italy) combined with Super Signal chemiluminescent substrate (Thermo Fisher Scientific), and detected in a Syngene analyzer (Cambridge, UK).
as §2

[4] = system: Notch1, Jagged1, Delta1, LGR4, LGR5; assay: Relative gene expression of stem cell markers in treated glands (real-time PCR); format: in vivo, bovine (Holstein calves); settings: 3 weeks skip-a-day rapamycin; not significant at P<0.05
Protocol: FIG. 4A-4B: (FIG. 4A) Dispersed cells isolated from individual vehicle- and rapamycin-treated mammary glands were seeded in 96-well plates and cultured in mammary medium. At the indicated time points (arrows), cells were trypsinized, counted and reseeded. Inset: cell number at the end of the culture period. Bars represent mean±SEM. (FIG. 4B) Relative gene expression analysis of luminal progenitor marker (Stat5) and stem cell markers (Notch1, Jagged1, Delta1, LGR4, LGR5). N=4 for vehicle-treated and 3 for rapamycin-treated glands. Six wells of cells from each gland were analyzed.
RNA was extracted from the parenchymal region of each mammary gland using TRIzol reagent and reverse-transcribed with the qScript Synthesis Kit (Quanta BioSciences, Beverly, MA). RNA quality and quantity were determined in a NanoDrop 1000 spectrophotometer (Thermo Fisher Scientific, Wilmington, DE). Quantitative real-time PCR analyses were performed in a StepOnePlus instrument (Applied Biosystems, Foster City, CA) in a […] reaction volume containing 1 μL cDNA, 5 μL PerfeCta SYBR Green FastMix, Rox (2X) (Quanta BioSciences) and 0.5 μL of the primers listed in Table 1. The thermal cycling conditions consisted of 20 s at 95° C. followed by 40 cycles of 3 s at 95° C. and 30 s at 60° C. […] Fold change (relative expression) was calculated using StepOne v2.1 and DataAssist v2.0 software (Applied Biosystems). […]

[5] = target: T1, mammalian target of rapamycin (mTOR); assay: S6 phosphorylation after 3 weeks of skip-a-day intramammary rapamycin administration (immunoblot); format: in vivo, bovine (Holstein calves)
Protocol: (§4) Three-month-old female Holstein calves (˜90 kg body weight [BW]) that were raised on the Volcani Center's experimental farm were used in these experiments. During the experimental periods, each mammary gland was administered via the teat canal with 2 mL of vehicle, composed of sterile PBS containing 10% polyethylene glycol (Sigma, St. Louis, MO) and 10% Tween 80 (Sigma). In individual experiments, the vehicle was supplemented with Evans blue to analyze the penetration of this solution into the mammary epithelium, or with rapamycin to analyze its effect on cellular activities. […]
as §3, with “Fractionated proteins were transferred to nitrocellulose filters and the uploading of equal amounts of protein per sample was confirmed by staining the blot with Ponceau S (Sigma).” left out

mammary epithelial cells = assay: Mammary cell proliferation by PCNA staining after rapamycin followed by estrogen and progesterone; format: in vivo, bovine (Holstein calves); settings: 3 weeks 8.3 mg/gland per day, then estrogen and progesterone for 4 days
Protocol: FIGS. 6A-6C: (FIG. 6A) lower and (FIG. 6B) higher magnifications of PCNA-stained parenchymal cells and counterstained with hematoxylin. S, small ducts; L, large ducts. Bar=50 μm. (FIG. 6C) PCNA+ cells were analyzed in total (left plot), basal (middle plot) and luminal cell (right plot) populations of the small and large ducts. Six independent microscopic fields (X10 magnification) from each of the six glands treated with vehicle and six glands treated with rapamycin were analyzed. Overall, 127 ducts and 10,619 cells, and 122 ducts and 9999 cells were analyzed in the vehicle-treated and rapamycin-treated glands, respectively. ** P<0.01, *** P<0.001.
as §4, with “activities. The vehicle was administered using a sterile 22G IV cannula (Deltaven, Viadana, (MN) Italy), cut to ˜1.5 cm and inserted (without the needle) into the teat canal.” for “activities.”

bovine mammary cell = settings: xanthosine administration; cited from earlier work
[6] = 24 h after infusion, close to nipple, rapamycin 4.16 mg
[7] = 24 h after infusion, close to nipple, rapamycin 8.32 mg
[8] = 48 h after infusion, close to nipple, rapamycin 4.16 mg
[9] = 48 h after infusion, close to nipple, rapamycin 8.32 mg
[10] = 48 h after infusion, far from nipple, rapamycin 4.16 mg
[11] = 48 h after infusion, far from nipple, rapamycin 8.32 mg

Structure (SMILES): CO[C@H]1C[C@@H]2CC[C@@H](C)[C@@](O)(O2)C(=O)C(=O)N2CCCC[C@H]2C(=O)O[C@H]([C@H](C)C[C@@H]2CC[C@@H](O)[C@H](OC)C2)CC(=O)[C@H](C)/C=C(\C)[C@@H](O)[C@@H](OC)C(=O)[C@H](C)C[C@H](C)/C=C/C=C/C=C/1C [Rapamycin]
- propagation rate difference, cultures from rapamycin-treated vs vehicle-treated gland ([1]; day 37 of culture): 1.15 fold
- propagation rate difference, cultures from rapamycin-treated vs vehicle-treated gland ([1]; day 52 of culture): 1.4 fold
- propagation rate difference, cultures from rapamycin-treated vs vehicle-treated gland ([1]; end of the culture period): 2.6 fold
- differences in morphology between vehicle- and rapamycin-treated glands ([2]; 3 weeks 8.3 mg/gland per day, then estrogen and progesterone for 4 days): no apparent differences
- effect on mammary gland morphology ([2]; 3 weeks skip-a-day, 8.32 mg/gland per day): not associated with any detectable effect
- effect on tissue morphology in the parenchymatic regions ([2]; 4.16 or 8.32 mg/gland, 24 h or 48 h after administration): did not seem to have any effect
- pathological consequences of the amount and methodology chosen ([2]; intramammary administration): did not have pathological consequences
- pS6/S6 relative to vehicle (100%) [3, 6]: (66%)
- pS6/β-actin relative to vehicle (100%) [3, 6]: (75%)
- pS6/S6 relative to vehicle (100%) [3, 7]: (95%)
- pS6/β-actin relative to vehicle (100%) [3, 7]: (63%)
- pS6/S6 relative to vehicle (100%) [3, 8]: (71%)
- pS6/β-actin relative to vehicle (100%) [3, 8]: (64%)
- pS6/S6 relative to vehicle (100%) [3, 9]: (76%)
- pS6/β-actin relative to vehicle (100%) [3, 9]: (81%)
- pS6/S6 relative to vehicle (100%) [3, 10]: (93%)
- pS6/β-actin relative to vehicle (100%) [3, 10]: (68%)
- pS6/S6 relative to vehicle (100%) [3, 11]: (48%)
- pS6/β-actin relative to vehicle (100%) [3, 11]: (56%)
- stem cell marker gene expression, more than in vehicle-treated counterparts [4]: 8-20%
- decrease in S6 phosphorylation ([5]; 3 weeks skip-a-day, 8.32 mg/gland per day, immunoblot 48 h after termination): 53%
- decrease in mTOR activity ([5]; skip-a-day, 3-week intramammary administration): ~50%
- increase in total number of PCNA+ cells (mammary epithelial cells): 20%

Structure (SMILES): O=c1[nH]c(=O)c2ncn([C@@H]3O[C@H](CO)[C@@H](O)[C@H]3O)c2[nH]1 [xanthosine]
- suppression of bovine mammary cell proliferation (bovine mammary cell): 50%
